{"source": "paper PMC5590943", "about": "“Pharmacological characterisation of S 47445, a novel positive allosteric modulator of AMPA receptors” (PLoS ONE, 2017)", "key": {"[1]": {"test_system": "Adenylyl cyclase (stimulated)", "experiment": "Enzyme and cell-based assay, ATP (0.5 mM) / forskolin (10 μM)"}, "mature form of BDNF": {"test_system": "mature form of BDNF", "set-up": "method as in PMID 7718245", "settings": "aged rats, from the dose of 1 mg/kg; cited from earlier work"}, "male C57Bl/6 mice": {"test_system": "male C57Bl/6 mice", "experiment": "Spontaneous alternation in a T-maze in mice", "assay_type": "in vivo, mouse", "settings": "180 s inter-trial delay", "description": "Novel object recognition and T-maze studies were conducted respectively in male OFA rats (150–175 g, Charles River, Saint-Germain-Nuelles, France) and male C57Bl/6 mice (5.5–6.5 month-old, Charles River, Saint-Germain-Nuelles, France). Animals were housed in collective cages with continuous access to tap water and food on a 12 h light-dark cycle, in a temperature-controlled (21 ± 1°C) and ventilated room. On completion of studies subjects were euthanized by either CO2 inhalation or intraperitoneal (i.p.) lethal pentobarbital injection. The novel object recognition test was used as the primary in vivo screening assay to identify AMPA-PAMs. The T-maze task was performed using a modified continuous performance procedure previously described in mice. […]\nBehavioral testing was conducted in a T-shaped maze made of grey Plexiglas using mice. […] Photoelectric cells detected the position of the mouse on the maze. […]\nBoth alternation performance and latency of entry were assessed. […] The successive sequence of visits for the 7 first trials determined the level of alternation. A percentage of alternation was calculated for each mouse, and corresponded to the number of alternations performed relative to the number maximal of alternation (n = 6). […] The mean latency of entry from trial 2 to trial 7 was calculated for each mouse. […]"}, "Kainate": {"test_system": "Kainate", "experiment": "Binding assay, [3H]kainic acid, rat cerebral cortex membranes"}, "[2]": {"target": "T1, GluA1flop/GluA2flip AMPA receptors (Homo sapiens, UniProt P42261+P42262, Q607R)", "T1 construct": "host or cells: Xenopus laevis oocytes", "T1 sequence (P42261 19-906)": "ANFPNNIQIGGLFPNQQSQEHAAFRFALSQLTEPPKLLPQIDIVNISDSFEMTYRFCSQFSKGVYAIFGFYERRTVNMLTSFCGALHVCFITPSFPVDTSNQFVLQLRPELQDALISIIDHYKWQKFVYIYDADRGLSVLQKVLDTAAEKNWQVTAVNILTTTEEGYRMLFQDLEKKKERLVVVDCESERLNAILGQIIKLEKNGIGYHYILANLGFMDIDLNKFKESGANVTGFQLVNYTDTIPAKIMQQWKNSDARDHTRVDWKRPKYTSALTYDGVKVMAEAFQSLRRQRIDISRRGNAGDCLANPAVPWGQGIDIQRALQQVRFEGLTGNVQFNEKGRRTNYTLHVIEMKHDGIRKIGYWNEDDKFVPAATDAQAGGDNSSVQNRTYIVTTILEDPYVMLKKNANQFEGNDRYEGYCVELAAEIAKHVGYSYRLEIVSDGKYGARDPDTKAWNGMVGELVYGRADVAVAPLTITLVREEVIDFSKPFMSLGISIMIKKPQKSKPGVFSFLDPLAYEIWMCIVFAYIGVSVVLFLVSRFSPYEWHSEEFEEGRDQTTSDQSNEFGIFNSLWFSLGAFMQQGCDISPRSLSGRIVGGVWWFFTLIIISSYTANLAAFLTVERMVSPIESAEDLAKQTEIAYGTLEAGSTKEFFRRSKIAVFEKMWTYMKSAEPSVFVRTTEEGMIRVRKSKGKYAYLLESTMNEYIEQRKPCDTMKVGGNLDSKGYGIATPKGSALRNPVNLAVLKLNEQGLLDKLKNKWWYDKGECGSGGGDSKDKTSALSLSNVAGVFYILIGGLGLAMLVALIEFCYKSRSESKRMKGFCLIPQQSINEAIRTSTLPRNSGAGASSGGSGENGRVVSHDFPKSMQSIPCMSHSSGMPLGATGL", "T1 sequence (P42262 22-883 isoform P42262-2 Q607R limits assumed)": "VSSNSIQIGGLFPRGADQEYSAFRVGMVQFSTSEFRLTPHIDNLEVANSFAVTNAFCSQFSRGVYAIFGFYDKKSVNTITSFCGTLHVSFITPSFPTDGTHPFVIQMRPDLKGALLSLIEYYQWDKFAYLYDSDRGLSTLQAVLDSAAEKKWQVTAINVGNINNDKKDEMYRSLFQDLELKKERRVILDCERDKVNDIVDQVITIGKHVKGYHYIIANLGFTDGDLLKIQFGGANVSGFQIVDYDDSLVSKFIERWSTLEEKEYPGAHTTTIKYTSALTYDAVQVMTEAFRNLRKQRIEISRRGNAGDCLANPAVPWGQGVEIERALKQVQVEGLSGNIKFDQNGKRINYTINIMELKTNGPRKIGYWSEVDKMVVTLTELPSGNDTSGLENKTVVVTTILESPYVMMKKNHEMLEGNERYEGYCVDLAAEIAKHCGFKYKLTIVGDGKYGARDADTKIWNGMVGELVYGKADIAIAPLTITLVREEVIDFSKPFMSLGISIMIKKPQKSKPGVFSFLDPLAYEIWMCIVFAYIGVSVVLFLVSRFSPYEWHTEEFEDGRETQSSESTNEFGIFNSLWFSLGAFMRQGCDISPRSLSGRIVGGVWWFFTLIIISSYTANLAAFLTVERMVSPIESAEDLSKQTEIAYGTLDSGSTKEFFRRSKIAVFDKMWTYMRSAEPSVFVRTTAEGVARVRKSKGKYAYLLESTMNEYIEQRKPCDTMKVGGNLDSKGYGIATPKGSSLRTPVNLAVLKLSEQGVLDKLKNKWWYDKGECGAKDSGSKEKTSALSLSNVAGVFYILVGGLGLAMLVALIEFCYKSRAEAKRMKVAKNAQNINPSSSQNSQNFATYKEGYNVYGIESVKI", "experiment": "10 μM glutamate-evoked currents in Xenopus laevis oocytes expressing GluA1flop/GluA2flip (repetitive pulses, GYKI52466)", "assay_type": "cell-based", "settings": "for EC50: n = 3", "description": "Compounds were tested by bath application.\nTo test the inhibition, the selective AMPA receptor antagonist GYKI52446 was used from 10 to 1000 μM on the potentiation caused by S 47445 (1 μM).\nEC50 were determined either using Matlab (Mathworks inc., Natick, USA) or SAS v9.2 (SAS Institute inc., Cary, USA) softwares. To have a comparative value between the tested drugs when EC50 could not be determined (absence of plateau at high concentrations), the EC2X was determined. EC2X corresponds to the concentrations of the drug responsible for a two-fold increase in the amplitude of the current."}, "I1": {"test_system": "I1", "experiment": "Binding assay, [3H]clonidine (+ 10 μM RX821002)"}, "male NMRI mice": {"test_system": "male NMRI mice", "experiment": "Functional observation battery in mice", "assay_type": "in vivo, mouse", "description": "The effect of 47445 after high doses administration was assessed on general behaviour in mice. Male NMRI mice (18–22 g, Janvier Labs, Le Genest Saint Isle, France) were used and placed individually for habituation, 15 min before administration. Room temperature was maintained at 20.9°C during experimentation. At T0 min, body temperature was monitored via a rectal probe connected to a computer (Viewpoint). Mice were then orally treated with S 47445 (30, 100 and 300 mg/kg) or vehicle. […] Delta of body temperature compared to T0 min (°C) was calculated. Groups were compared for body temperature at T0 min with a one-way ANOVA followed by Tukey’s pair-wise comparison post hoc tests. The treatment effect on delta of body temperature compared to T0 min was analysed using a two-way ANOVA followed by Dunnett’s post hoc tests. Analyses were performed using SAS v9.2 software (SAS Institute, Cary, NC)."}, "α1 (non-selective)": {"test_system": "α1 (non-selective)", "experiment": "Binding assay, [3H]prazosin"}, "NMDA receptors": {"test_system": "NMDA receptors", "experiment": "NMDA-evoked currents, oocytes injected with rat cortex poly(A+) mRNA", "settings": "n = 3"}, "[3]": {"test_system": "about a hundred receptors, enzymes, transporters and channels", "experiment": "CEREP panel, competition binding and enzyme assays"}}}
{"smiles": "O=C1c2cc3nnn(CCc4cccc(F)c4)c(=O)c3cc2OCN1C1CC1", "note": "[S 47445, 8-cyclopropyl-3-[2-(3-fluorophenyl)ethyl]-7,8-dihydro-3H-[1,3]oxazino[6,5-g][1,2,3]benzotriazine-4,9-dione]", "values": [{"measurement": "% Inhibition of control specific binding", "setting": "[1]; S 47445 1.0E-05 M", "result": -21, "unit": "%"}, {"measurement": "% Inhibition of control specific binding", "setting": "[1]; S 47445 1.0E-07 M", "result": 6, "unit": "%"}, {"measurement": "Neurotrophic effect on BDNF proteins", "setting": "mature form of BDNF", "result": "inducing mature form of BDNF proteins"}, {"measurement": "Spontaneous alternation versus vehicle", "setting": "male C57Bl/6 mice; 0.3 mg/kg i.p. acute, p≤0.05", "result": "improved the performance of spontaneous alternation"}, {"measurement": "Spontaneous alternation versus vehicle", "setting": "male C57Bl/6 mice; 1 mg/kg i.p. acute, p = 0.07", "result": "improved the performance of spontaneous alternation"}, {"measurement": "% Inhibition of control specific binding", "setting": "Kainate; S 47445 1.0E-05 M", "result": 25, "unit": "%"}, {"measurement": "% Inhibition of control specific binding", "setting": "Kainate; S 47445 1.0E-07 M", "result": 7, "unit": "%"}, {"measurement": "Ki", "setting": "Kainate; read-out: Ki, glutamate binding site, n = 2", "result": "> 10", "unit": "µM"}, {"measurement": "EC50", "setting": "[2]; EC50 of potentiation in absence of GYKI52466, 10 μM glutamate", "result": "3.23 ± 0.5", "unit": "µM"}, {"measurement": "EC50", "setting": "[2]; EC50 of potentiation in presence of 100μM of GYKI52466, 10 μM glutamate", "result": "1.99 ± 0.3", "unit": "µM"}, {"measurement": "Effect on glutamate-evoked currents with repetitive glutamate pulses", "setting": "[2]; S 47445 0.1 and 0.3 μM, 10 μM glutamate 20 s, 1/min", "result": "progressive potentiation of the glutamate-evoked currents from the second pulse of glutamate"}, {"measurement": "% Inhibition of control specific binding", "setting": "I1; S 47445 1.0E-05 M", "result": 21, "unit": "%"}, {"measurement": "% Inhibition of control specific binding", "setting": "I1; S 47445 1.0E-07 M", "result": 10, "unit": "%"}, {"measurement": "Body temperature and behavior", "setting": "male NMRI mice; 30, 100 and 300 mg/kg oral acute", "result": "no significant effect"}, {"measurement": "Spontaneous epileptic seizures", "setting": "male NMRI mice; up to 300 mg/kg p.o.", "result": "No occurrence"}, {"measurement": "% Inhibition of control specific binding", "setting": "α1 (non-selective); S 47445 1.0E-05 M", "result": 1, "unit": "%"}, {"measurement": "% Inhibition of control specific binding", "setting": "α1 (non-selective); S 47445 1.0E-07 M", "result": -5, "unit": "%"}, {"measurement": "Effect at NMDA-evoked currents", "setting": "NMDA receptors", "result": "absence of effect"}, {"measurement": "Percentage of inhibition of control value", "setting": "[3]; 10 μM S 47445, all assays of S1 Table", "result": "lower than 50%"}, {"measurement": "Ki", "setting": "[3]; read-out: Ki values in all these assays, inferred from <50% inhibition at 10 μM", "result": "> 10", "unit": "µM"}]}
